Results reported in patent US6069177A, “3-Hydroxy-propanamine derived neuronal reuptake inhibitors” (priority 1997, dated 2000).
Entries after “also recorded” stand apart in the source; their conditions may differ. Like-named read-outs stand apart in the source and are kept apart here.

What was measured:
hSERT, hNET, and hDAT = assay: Simultaneous binding to cloned human transporters hSERT, hNET and hDAT; conditions: for Simultaneous Transporter Binding Potency: Table 4, each of the potency values greater than 7.0; for Simultaneous Transporter Binding Potency (Human): Table 5, comparison of rat and human data; for simultaneous transporter binding potency, in words: human, each value ≥7.0
Experimental: (§1) These transporters are responsible for neuronal reuptake of the neurotransmitters.
(§2) Cells were incubated in 10% CO2, 90% air at 37° C. and 100% humidity. The selecting antibiotic geneticin sulfate (250 μg/ml) was used during the cell culture for the hNET only.
(§3) For the preparation of homogenates, medium was removed by aspiration. […] Cells were then scraped from the surface with a rubber spatula into a centrifuge tube and collected by centrifugation at 1000×g for 5 min at 4° C. Supernatants were decanted and the pellet was resuspended in the appropriate binding buffer and homogenized with the use of a Polytron for 10 sec at setting 6. This solution was centrifuged at about 36,000×g for 10 minutes (4° C.). The pellet was suspended in the same volume of buffer and the centrifugation was repeated. The supernatants were decanted and the final pellet was suspended in the appropriate buffer and stored at -80° C. until use.
(§4) For the membranal preparation, cells were homogenized in 50 mM Tris-HCl with 120 mM NaCl and 5 mM KC1 (pH 7.4). […] The reaction mixture was incubated at 22° C. for 30 min. The assay was terminated by rapid filtration of the contents of each tube through a GF/B filter strip, which had been pretreated with 0.2% polyethylenimine, with the use of a 48-well Brandel cell harvester. The filter strips were then rinsed five times with ice-cold 0.9% NaCl. Next, individual filters were cut from the strip and placed in a scintillation vial containing 6.5 mL of Redi-Safe (Beckman Instruments, Fullerton, Calif.). Radioactivity was measured with a Beckman liquid scintillation counter (LS 5000TD).
For the membranal preparation, cells were homogenized in 50 mM Tris-HCl with 300 mM NaCl and 5 mM KCl (pH 7.4). […] The reaction mixture was incubated at 22° C. for 60 min. The remaining methods were exactly as described for hSERT above.
(§5) For the membranal preparation, cells were homogenized in the 50 mM Tris-HCl with 120 mM NaCl (pH 7.4). […] The reaction mixture was incubated at 4° C. for 2 hr. The remaining methods were exactly as described for hSERT above.
(§6) The program was modified by the inventors to calculate the Hill Coefficient (nH). […] One-component models and two-component models were compared using the root mean square error of each fit and the F test.

[1] = target: human norepinephrine transporter (hNET) (Homo sapiens, UniProt P23975); type: binding; conditions: Kd (NE)/Kd (compound or drug) in the hNET binding assay
human norepinephrine transporter (hNET), sequence (P23975 whole entry): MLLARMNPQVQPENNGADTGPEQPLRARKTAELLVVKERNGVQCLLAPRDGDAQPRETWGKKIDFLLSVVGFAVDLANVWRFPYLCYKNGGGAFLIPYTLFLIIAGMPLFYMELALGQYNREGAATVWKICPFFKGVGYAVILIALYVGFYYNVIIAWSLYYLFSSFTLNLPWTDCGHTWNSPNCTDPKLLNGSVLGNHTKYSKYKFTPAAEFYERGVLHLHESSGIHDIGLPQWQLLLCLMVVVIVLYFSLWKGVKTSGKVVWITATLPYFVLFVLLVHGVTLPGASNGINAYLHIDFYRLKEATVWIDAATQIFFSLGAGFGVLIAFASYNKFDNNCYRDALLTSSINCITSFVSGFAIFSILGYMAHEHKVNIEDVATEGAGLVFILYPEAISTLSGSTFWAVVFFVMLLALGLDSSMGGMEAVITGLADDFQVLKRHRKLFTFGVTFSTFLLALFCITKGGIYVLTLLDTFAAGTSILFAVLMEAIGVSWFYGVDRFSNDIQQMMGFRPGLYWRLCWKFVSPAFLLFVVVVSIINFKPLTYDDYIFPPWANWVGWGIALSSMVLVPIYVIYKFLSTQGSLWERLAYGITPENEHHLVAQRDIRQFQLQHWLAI

[2] = target: T1, NE reuptake into rat brain synaptosomes (Rattus norvegicus, UniProt Q63380); assay: biochemical; design: species or system rat (male Sprague-Dawley), hippocampal tissue
T1 construct: A crude synaptosomal (P2) fraction was prepared; tissue Harlan Sprague-Dawley (animals); host or cells: rat hippocampus, crude synaptosomal (P2) fraction
T1 sequence (Q63380 1-617): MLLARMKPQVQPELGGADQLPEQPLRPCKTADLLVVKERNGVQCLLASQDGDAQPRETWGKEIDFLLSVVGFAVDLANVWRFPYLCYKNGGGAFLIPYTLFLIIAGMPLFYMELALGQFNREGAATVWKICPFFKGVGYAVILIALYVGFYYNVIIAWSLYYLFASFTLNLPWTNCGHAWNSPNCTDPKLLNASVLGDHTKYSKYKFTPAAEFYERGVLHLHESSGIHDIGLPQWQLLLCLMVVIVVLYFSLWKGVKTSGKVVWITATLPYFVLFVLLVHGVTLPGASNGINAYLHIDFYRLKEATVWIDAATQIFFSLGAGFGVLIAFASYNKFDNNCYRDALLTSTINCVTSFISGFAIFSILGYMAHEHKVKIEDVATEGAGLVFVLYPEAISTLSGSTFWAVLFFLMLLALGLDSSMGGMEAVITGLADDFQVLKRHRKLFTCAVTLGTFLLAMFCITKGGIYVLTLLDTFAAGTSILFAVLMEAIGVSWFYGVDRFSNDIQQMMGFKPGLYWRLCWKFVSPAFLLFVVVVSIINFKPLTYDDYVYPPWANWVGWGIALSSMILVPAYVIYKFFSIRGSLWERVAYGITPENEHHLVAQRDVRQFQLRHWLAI

[3] = target: T2, human serotonin transporter (hSERT) (Homo sapiens, UniProt P31645); type: binding
T2 construct: expressed in transfected cells; membranes of cells expressing the cloned hSERT
T2 sequence (P31645 whole entry): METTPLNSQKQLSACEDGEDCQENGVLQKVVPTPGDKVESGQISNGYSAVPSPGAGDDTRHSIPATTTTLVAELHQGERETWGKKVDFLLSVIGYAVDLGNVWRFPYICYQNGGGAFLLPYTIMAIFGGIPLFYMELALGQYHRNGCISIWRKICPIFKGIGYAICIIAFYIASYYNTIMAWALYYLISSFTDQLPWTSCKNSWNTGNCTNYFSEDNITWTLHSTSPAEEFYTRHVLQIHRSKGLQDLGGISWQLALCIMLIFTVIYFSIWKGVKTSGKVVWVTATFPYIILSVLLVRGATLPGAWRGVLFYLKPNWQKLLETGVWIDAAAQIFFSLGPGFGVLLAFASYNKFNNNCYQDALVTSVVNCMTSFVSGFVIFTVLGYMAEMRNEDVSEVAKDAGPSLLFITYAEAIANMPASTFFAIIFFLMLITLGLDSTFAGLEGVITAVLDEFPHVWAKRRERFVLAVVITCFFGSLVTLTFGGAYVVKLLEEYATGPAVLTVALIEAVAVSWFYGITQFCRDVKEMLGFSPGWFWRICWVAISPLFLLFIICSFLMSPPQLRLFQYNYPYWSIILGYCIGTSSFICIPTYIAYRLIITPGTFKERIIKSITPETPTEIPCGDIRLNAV
Experimental: as §1, §2, §3, §4, §6

[4] = system: 5-HT, NE and DA reuptake into rat brain synaptosomes; type: biochemical, rat (male Sprague-Dawley); conditions: for block uptake of all three neurotransmitters (5-HT, NE, and DA), Ki in words: rat brain synaptosomes
Experimental: (§7) Briefly, the tissue was homogenized in 20 volumes of ice-cold 0.32 M sucrose containing 11 mM glucose, pH 7.4 in a glass Potter-Elvehjemhomogenizer with teflon pestle (8 strokes, 900 rpm). The homogenate was centrifuged at 1,000 g for 10 minutes. The resulting supernatant was then centrifuged at 20,000 g for 20 minutes and the supernatent was discarded.
(§8) Briefly, synaptosomal protein (1.0-2.5 mg) was suspended in a total volume of 1 mL containing oxygenated incubation buffer, 10 μM pargyline to inhibit monoamine oxidase activity, 0.2 mg/mL sodium ascorbate and varying concentrations of other compounds or drugs as indicated in the text. […] After a 5 minute preincubation at 37° C. in a shaking water bath (80 oscillations/minute), the uptake was initiated by the addition of […]. The reaction was stopped after 5 minute by adding 4 mL ice-cold 0.9% (w/v) sodium chloride and rapidly filtered through a Whatman GF/B glass fiber filter in a 48-place Brandel cell harvester. The filter was then washed with an additional 8 mL of wash buffer, placed in a scintillation vial containing 5 mL of Redi-Safe (Beckman Instruments, Fullerton, Calif.) and counted. Specific uptake was calculated as the difference between the total uptake (zero unlabelled ligand) and nonspecific uptake (excess unlabelled ligand).

[5] = target: T3, DA reuptake into rat brain synaptosomes (Rattus norvegicus, UniProt P23977); assay: DA reuptake inhibition in rat brain synaptosomes; type: biochemical, rat (male Sprague-Dawley), striatal tissue; conditions: for DA (Rat) Reuptake Inhibition Potency: Ki (DA)/Ki (compound or drug), Prozac to Serzone derived from literature Ki
T3 construct: A crude synaptosomal (P2) fraction was prepared; tissue Harlan Sprague-Dawley (animals); host or cells: rat striatum, crude synaptosomal (P2) fraction
T3 sequence (P23977 whole entry): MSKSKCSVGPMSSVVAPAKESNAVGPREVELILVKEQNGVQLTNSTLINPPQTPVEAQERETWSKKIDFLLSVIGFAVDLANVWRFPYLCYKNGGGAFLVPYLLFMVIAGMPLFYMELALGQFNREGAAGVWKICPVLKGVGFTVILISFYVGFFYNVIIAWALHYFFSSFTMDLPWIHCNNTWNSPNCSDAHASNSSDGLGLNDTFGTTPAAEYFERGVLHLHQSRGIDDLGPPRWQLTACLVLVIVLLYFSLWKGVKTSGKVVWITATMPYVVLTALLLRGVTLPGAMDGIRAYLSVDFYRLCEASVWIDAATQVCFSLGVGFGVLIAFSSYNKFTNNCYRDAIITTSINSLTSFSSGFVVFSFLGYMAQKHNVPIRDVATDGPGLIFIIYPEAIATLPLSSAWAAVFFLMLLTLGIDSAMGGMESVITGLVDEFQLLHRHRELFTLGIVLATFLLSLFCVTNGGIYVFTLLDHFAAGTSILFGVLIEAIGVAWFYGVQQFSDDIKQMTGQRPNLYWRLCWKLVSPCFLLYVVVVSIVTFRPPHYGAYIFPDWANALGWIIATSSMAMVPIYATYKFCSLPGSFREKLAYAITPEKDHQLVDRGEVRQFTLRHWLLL

[6] = target: T4, human dopamine transporter (hDAT) (Homo sapiens, UniProt Q01959); assay: [3H]WIN35428 binding to cloned human DAT; conditions: Kd (DA)/Kd (compound or drug) in the hDAT binding assay
T4 construct: expressed in transfected cells; membranes of cells expressing the cloned hDAT
T4 sequence (Q01959 whole entry): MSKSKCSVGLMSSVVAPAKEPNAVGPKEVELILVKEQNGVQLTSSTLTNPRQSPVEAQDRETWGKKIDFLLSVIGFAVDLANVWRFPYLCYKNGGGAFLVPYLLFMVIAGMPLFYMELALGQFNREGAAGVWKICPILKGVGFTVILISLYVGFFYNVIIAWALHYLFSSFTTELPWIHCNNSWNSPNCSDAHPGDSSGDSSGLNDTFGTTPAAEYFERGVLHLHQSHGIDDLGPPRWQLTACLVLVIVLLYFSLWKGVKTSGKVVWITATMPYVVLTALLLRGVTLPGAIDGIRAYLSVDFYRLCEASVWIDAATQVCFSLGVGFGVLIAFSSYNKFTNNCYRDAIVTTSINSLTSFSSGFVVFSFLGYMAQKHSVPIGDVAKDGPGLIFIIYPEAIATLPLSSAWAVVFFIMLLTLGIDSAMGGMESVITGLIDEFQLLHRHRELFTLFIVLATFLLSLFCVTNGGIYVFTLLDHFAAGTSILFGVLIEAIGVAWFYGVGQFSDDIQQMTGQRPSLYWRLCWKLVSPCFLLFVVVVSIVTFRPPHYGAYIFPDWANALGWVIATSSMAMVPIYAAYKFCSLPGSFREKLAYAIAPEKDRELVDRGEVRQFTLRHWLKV
Experimental: as §1, §2, §3, §5, §6

[7] = target: T5, 5-HT reuptake into rat brain synaptosomes (Rattus norvegicus, UniProt P31652); assay: 5-HT reuptake inhibition in rat brain synaptosomes; type: biochemical, rat (male Sprague-Dawley), cortical tissue; conditions: Ki (5-HT)/Ki (compound or drug); Prozac to Serzone derived from literature Ki
T5 construct: A crude synaptosomal (P2) fraction was prepared; tissue Harlan Sprague-Dawley (animals); host or cells: rat cerebral cortex, crude synaptosomal (P2) fraction
T5 sequence (P31652 whole entry): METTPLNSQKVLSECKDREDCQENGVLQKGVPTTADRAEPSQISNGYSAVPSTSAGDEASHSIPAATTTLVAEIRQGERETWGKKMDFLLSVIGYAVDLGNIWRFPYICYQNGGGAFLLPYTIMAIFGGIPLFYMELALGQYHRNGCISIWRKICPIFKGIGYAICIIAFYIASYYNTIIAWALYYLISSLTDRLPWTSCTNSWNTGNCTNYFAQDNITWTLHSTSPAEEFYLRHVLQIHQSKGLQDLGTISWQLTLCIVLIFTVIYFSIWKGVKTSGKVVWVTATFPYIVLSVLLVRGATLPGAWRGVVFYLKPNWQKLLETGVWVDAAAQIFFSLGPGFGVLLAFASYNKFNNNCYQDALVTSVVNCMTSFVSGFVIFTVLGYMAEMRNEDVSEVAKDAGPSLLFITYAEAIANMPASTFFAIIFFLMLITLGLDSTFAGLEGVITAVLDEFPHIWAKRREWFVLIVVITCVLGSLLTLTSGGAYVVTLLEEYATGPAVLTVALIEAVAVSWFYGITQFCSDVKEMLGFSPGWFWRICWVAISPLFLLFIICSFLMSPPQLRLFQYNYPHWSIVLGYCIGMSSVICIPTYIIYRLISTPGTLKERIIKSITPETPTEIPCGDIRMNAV
Experimental: as §7, §8

[8] = Kd (5-HT)/Kd (compound or drug) in the hSERT binding assay
[9] = Table 5, comparison of rat and human data

Structure (SMILES)	Simultaneous Transporter Binding Potency (hSERT, hNET, and hDAT)	Simultaneous Transporter Binding Potency (Human) (hSERT, hNET, and hDAT)	simultaneous transporter binding potency, in words (hSERT, hNET, and hDAT)	hSert Binding Potency [3, 8]	Simultaneous Reuptake Inhibition Potency [4]	simultaneous reuptake inhibition potency, in words [4]	Simultaneous Reuptake Inhibition Potency (Rat) [4, 9]	block uptake of all three neurotransmitters (5-HT, NE, and DA), Ki in words [4]	DA (Rat) Reuptake Inhibition Potency [5]	hDAT Binding Potency [6]	further results
CN(C)C[C@H](c1ccc2ccccc2c1)[C@H](O)C(C)(C)C (relative stereo) [Compound A, (2RS,3RS)-3-Hydroxy-4,4-dimethyl-2-(2'-naphthyl)pentyl-N, N-dimethyl-ammonium chloride]	yes (A compound or drug is considered to possess "simultaneous transporter binding potency" if each of the potency values is greater than 7.0.)	yes (A compound or drug is considered to possess "simultaneous transporter binding potency" if each of the potency values is greater than 7.0.)	qualify for simultaneous transporter binding potency	1,750	yes (A compound or drug is considered to possess simultaneous reuptake inhibition potency if each of the potency values is greater than 1.0.)	possess the quality of "simultaneous reuptake inhibition potency"	yes (A compound or drug is considered to possess simultaneous reuptake inhibition potency if each of the potency values is greater than 1.0.)	nanomolar to 10 nanomolar range	1.11	7.16	hNet Binding Potency [1]: 73.6; NE (Rat) Reuptake Inhibition Potency ([2]; Ki (NE)/Ki (compound or drug), Prozac to Serzone derived from literature Ki): 12.0; Ki ([2]; rat brain synaptosomes): 10 ± 1 nM; reuptake inhibition of all three neurotransmitters in both the rat and human models, in words [4]: potently inhibit reuptake of all three neurotransmitters in both the rat and human models; Ki ([5]; rat brain synaptosomes): 60 ± 10 nM
CN(C)C[C@H](c1ccc2ccccc2c1)[C@H](O)c1ccccc1 (relative stereo) [Compound B, (2RS,3RS)-3-Hydroxy-2-(2'-naphthyl)-3-phenylpropyl-N, N-dimethylammonium chloride]	yes (A compound or drug is considered to possess "simultaneous transporter binding potency" if each of the potency values is greater than 7.0.)	yes (A compound or drug is considered to possess "simultaneous transporter binding potency" if each of the potency values is greater than 7.0.)	qualify for simultaneous transporter binding potency		yes (A compound or drug is considered to possess simultaneous reuptake inhibition potency if each of the potency values is greater than 1.0.)	possess the quality of "simultaneous reuptake inhibition potency"	yes (A compound or drug is considered to possess simultaneous reuptake inhibition potency if each of the potency values is greater than 1.0.)	nanomolar to 10 nanomolar range		34.3	simultaneous transporter binding potency, tightened criterion (hSERT, hNET, and hDAT; all potency values must be greater than 30): still qualifies; hSert Binding Potency [3]: 376; reuptake inhibition of all three neurotransmitters in both the rat and human models, in words [4]: potently inhibit reuptake of all three neurotransmitters in both the rat and human models
CC(C)(C)[C@@H](O)[C@H](CN)c1ccc2ccccc2c1 (relative stereo) [Compound C, (2RS,3RS)-3-hydroxy-4,4-dimethyl-2-(2'-naphthyl)pentyl-ammonium chloride]	no	no		347	no		no		0.57	0.09	hNet Binding Potency [1]: 39.9
NC[C@H](c1ccc2ccccc2c1)[C@H](O)c1ccccc1 (relative stereo) [Compound D, (2RS,3RS)-3-Hydroxy-2-(2'-naphthyl)-3-phenyl-propylammoni um chloride]	yes (A compound or drug is considered to possess "simultaneous transporter binding potency" if each of the potency values is greater than 7.0.)	yes (A compound or drug is considered to possess "simultaneous transporter binding potency" if each of the potency values is greater than 7.0.)	qualify for simultaneous transporter binding potency; also recorded: meets the criterion for simultaneous transporter binding potency	340	no	narrowly misses the criterion for simultaneous reuptake inhibition potency	no	nanomolar to 10 nanomolar range		16.8	5-HT (Rat) Reuptake Inhibition Potency [7]: 0.68
COc1ccc(C(CN(C)C)C2(O)CCCCC2)cc1 (centres unmarked) [Effexor ®, reference compound]					no				0.18		Simultaneous Reuptake Inhibition Potency (Rat) [4]: no
CNCCC(Oc1ccc(C(F)(F)F)cc1)c1ccccc1 (centres unmarked) [Prozac ®, reference compound]					no				0.02		Simultaneous Reuptake Inhibition Potency (Rat) [4]: no
CCc1nn(CCCN2CCN(c3cccc(Cl)c3)CC2)c(=O)n1CCOc1ccccc1 [Serzone ®, reference compound]									0.03		Simultaneous Reuptake Inhibition Potency ([4]; Table 2, each of the potency values greater than 1.0): no
CNCC[C@@H](Oc1ccccc1C)c1ccccc1 [Tomoxetine, reference compound]					no						
